# Biological target: T1, Mineralocorticoid receptor (Homo sapiens, UniProt P08235)
# T1 sequence (P08235 whole entry): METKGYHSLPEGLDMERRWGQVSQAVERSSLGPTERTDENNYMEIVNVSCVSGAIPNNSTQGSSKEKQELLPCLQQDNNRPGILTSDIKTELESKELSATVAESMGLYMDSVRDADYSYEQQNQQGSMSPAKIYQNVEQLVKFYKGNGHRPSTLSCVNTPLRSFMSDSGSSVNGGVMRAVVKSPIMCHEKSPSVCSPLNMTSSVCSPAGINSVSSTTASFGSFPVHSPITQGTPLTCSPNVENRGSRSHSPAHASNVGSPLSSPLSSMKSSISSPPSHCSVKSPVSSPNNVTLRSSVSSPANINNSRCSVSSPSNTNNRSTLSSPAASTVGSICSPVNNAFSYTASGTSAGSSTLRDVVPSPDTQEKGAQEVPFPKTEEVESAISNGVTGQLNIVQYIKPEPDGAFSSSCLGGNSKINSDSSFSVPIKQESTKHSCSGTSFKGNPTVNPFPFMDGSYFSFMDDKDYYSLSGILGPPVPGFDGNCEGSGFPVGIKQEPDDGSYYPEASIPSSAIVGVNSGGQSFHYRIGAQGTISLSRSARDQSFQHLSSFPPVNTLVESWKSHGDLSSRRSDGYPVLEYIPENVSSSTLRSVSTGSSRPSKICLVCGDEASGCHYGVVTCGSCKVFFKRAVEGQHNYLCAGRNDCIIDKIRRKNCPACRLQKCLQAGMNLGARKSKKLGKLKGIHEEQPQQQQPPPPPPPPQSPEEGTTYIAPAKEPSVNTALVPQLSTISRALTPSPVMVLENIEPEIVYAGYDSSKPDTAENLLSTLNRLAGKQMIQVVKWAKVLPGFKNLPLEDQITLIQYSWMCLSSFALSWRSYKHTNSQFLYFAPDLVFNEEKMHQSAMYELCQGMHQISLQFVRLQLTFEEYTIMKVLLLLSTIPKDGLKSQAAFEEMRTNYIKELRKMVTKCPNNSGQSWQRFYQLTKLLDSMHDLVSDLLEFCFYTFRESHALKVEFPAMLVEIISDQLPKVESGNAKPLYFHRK
# Experiment: Antagonist activity at Gal4-fused human MR LBD (671 to 984 residues) expressed in African Green Monkey CV-1 cells assessed as inhibition of aldosterone-induced transactivation activity after 20 hrs by luciferase reporter gene assay
compound,measurement,value
Cc1c(C(=O)Nc2ccc(S(C)(=O)=O)cc2)cc(CCO)n1-c1ccc(Cl)cc1C(F)(F)F,IC50,3.7 nM

# From BindingDB's records for doi:10.1021/acs.jmedchem.6b01065 (2017)
